US10143747B2, “Breast cancer therapeutics” (IMBA—INSTITUT FÜR MOLEKULARE BIOTECHNOLOGIE GMBH, priority 2010, dated 2018)

How the values were obtained:
NFκB pathway / CyclinD1 = assay: NFκB pathway activation and CyclinD1 expression in mammary epithelial cells after MPA in vivo; set-up: species or system mouse; conditions: three day MPA treatment, control females
Excerpt: a, Activation of the NFκB pathway and CyclinD1 expression by MPA. Nulliparous RANK^Δmam and littermate control females were s.c. implanted with slow-release MPA pellets or treated with sham surgery. a, In situ immunostaining to detect phosphorylated (P) IκBα in mammary epithelial cells of RANK^Δmam and littermate control females after 3 d MPA treatment. b, Western blot analysis of CyclinD1 and RANKL in isolated mammary epithelial cells from RANK^Δmam and littermate control females after 3 d MPA treatment. Recombinant, murine sRANKL protein is shown for molecular size comparison. β-actin is shown as a loading control.
The human epithelial breast tumor cell line SKBR3 and primary non-transformed mouse mammary epithelial cells were left untreated or stimulated with recombinant murine RANKL^ref. 9. Adenocarcinomas were isolated from control and mutant mice and total protein lysates prepared. Western blotting was carried out using standard protocols. Briefly, blots were blocked with 5% BSA in 1×TBS 0.1% Tween-20 (TBST) for 1 hour and incubated with primary antibody overnight at 4° C. (diluted in TBST according to the manufactures protocol). […]

[1] = tested on: human SKBR3 breast cancer cells; assay: Soft-Agar Colony Formation Assay (anchorage-independent growth); assay type: cell-based; conditions: RANKL 1 μg/ml
Protocol: a, Western blotting for phosphorylated (P) IKKα, total IKKα, phosphorylated (P) p65 NFκB, total p65 NFκB, phosphorylated (P) IκBα, and total IκBα in isolated primary mouse mammary gland epithelial cells (MECs) in response to RANKL stimulation (1 μg/ml). β-actin is shown as loading control. b, Western blotting for IKKα, IKKβ, IKKγ, phosphorylated (P) p65 NFκB, total p65 NFκB, phosphorylated (P) IκBα, and total IκBα in pooled late stage mammary adenocarconimas (n=4 for each lane) that developed in control, RANK^Δmam and IKKΔ^Δmam females. β-actin is shown as loading control c, Expression of RANK, CyclinD1, and p21 mRNA in late stage mammary adenocacinomas that developed in control, RANK^Δmam, and IKKα^Δmam females. Expression was determined by qRT-PCR. Data are mean values+/−sem. n=4 per group. d, Soft-Agar Colony Formation Assay. Growth of human SKBR3 breast cancer cells in soft agar in response to stimulation with RANKL (1 μg/ml) or EGF (100 ng/ml). Anchorage-independent, macroscopic colonies formed after 18 days in culture with RANKL, which was prevented by the decoy receptor OPG (1 μg/ml). […] Apoptosis was detected by immunostaining for active Caspase 3. f, Apoptotic nuclei of epithelial cells (arrows) are shown for representative mammary gland sections. Magnifications×40. g, Quantification of mammary epithelial apoptosis. A minimum of 5000 nuclei was counted for each mouse. […]

Row | Molecule | CyclinD1 protein expression in mammary epithelial cells (NFκB pathway / CyclinD1) | nuclear phosphorylated IκBα in mammary epithelial cells (NFκB pathway / CyclinD1) | growth of SKBR3 cells in soft agar [1]
1 | CC(=O)O[C@]1(C(C)=O)CC[C@H]2[C@@H]3C[C@H](C)C4=CC(=O)CC[C@]4(C)[C@H]3CC[C@@]21C [MPA, medroxyprogesterone acetate] | induction of CyclinD1 protein expression | nuclear accumulation of phosphorylated IκBα | 
2 | RANKL: recombinant RANKL protein, ligand of RANK, used as stimulus (1 μg/ml or 1 μg i.p.) (protein, UniProt O35235 139-316, looked up) Tumor necrosis factor ligand …: FSGAPAMMEGSWLDVAQRGKPEAQPFAHLTINAASIPSGSHKVTLSSWYHDRGWAKISNMTLSNGKLRVNQDGFYYLYANICFRHHETSGSVPTDYLQLMVYVVKTSIKIPSSHNLMKGGSTKNWSGNSEFHFYSINVGGFFKLRAGEEISIQVSNPSLLDPDQDATYFGAFKVQDID |  |  | induced growth of SKBR3 cells in soft agar
